Test results as given in patent publication US9789114B2, “Compounds as HIF-1α inhibitors and manufacturing process thereof” (DONGGUK UNIVERSITY INDUSTRY-ACADEMIC COOPERATION FOUNDATION, priority 2011, dated 2017).
Read-outs that look alike come from different tables or passages of the source.

Tests used:
[1] = test system: HIF-1α-mediated HRE transcriptional activity; experiment: Assay for inhibition of HIF-1α-mediated transcriptional activity (HRE reporter assay); format: cell-based, human; conditions: Homo sapiens, HCT-116, HCT116 cells, 12 hours under hypoxia (1% O2), read-out: Inhibitory activity against HIF-1α (10 μM)
Method: <Experiment 1> Assay for Inhibition of HIF-1α-Mediated Transcriptional Activity (HRE Reporter Assay)
The compounds can be developed as anti-cancer drugs, because the compounds inhibiting HIF-1α-mediated HRE transcriptional activity induced by hypoxia can suppress the growth and metastasis of cancer.
Inhibitory effects of the compounds according to the present invention, from Formula I-1 to I-42, on HIF-1α-mediated transcriptional activity were evaluated using this assay. pGL3-HRE-luciferase vector was constructed as follows. Six copies of HRE (Hypoxia Responsive Element, 5′-ACGTG-3′) from human VEGF genes were inserted into the multi-cloning site of a pGL3-basic vector (Promega). A luciferase gene was used as a reporter gene.
In detail, HCT116(ATCC #CCL-247) human colon cancer cells were seeded in 48-well cell culture plates. The cells were co-transfected with 25 ng of pGL3-HRE-luciferase and 2.5 ng of Renila control vectors using Polyfect reagent next day. After 24 hours of incubation, the cells were incubated for an additional 4 hours with replaced cell culture media. The cells were treated with various concentrations (0, 1, 3, 5, 10, and 20 μM) of the above compounds according to the present invention and incubated for 12 hours under hypoxia (1% O2, 94% N2, and 5% CO2). The luciferase assay was performed using a dual-luciferase reporter assay system (Promega). After cell lysate preparation with RIPA buffer, induced luciferase activity under hypoxic conditions was determined to examine inhibitory effects of the compounds according to the present invention, from Formula I-1 to I-42, on HIF-1α-mediated transcriptional activity.

[2] = test system: HCT116 colon cancer cells; experiment: In vivo anti-cancer activity by oral administration, HCT116 tumor in nude mice; design: species or system BALB/c nu/nu mice; conditions: for inhibition in vivo at 20 mg/kg: Mus musculus
Method: <Example 4> In Vivo Anti-Cancer Activity of Compounds by Oral Administration
(§1) In vivo anti-cancer activity of the compounds according to the present invention, I-3, I-6, I-8, I-16, I-19, I-22, I-23, and I-24, was measured in mice to evaluate in vivo efficacy by oral administration. Specifically, the nude mice were divided into test groups and control groups, each consisting of 4 mice. In vivo efficacy was evaluated by measuring body weight, tumor volume, and tumor weight.
(§2) Female nude mice 6 weeks old (BALB/c nu/nu, Charles River) were bred in germ-free breeding rooms maintained at constant temperature and humidity. After the nude mice were anesthetized, HCT116 colon cancer cells were implanted at a count of […] cells/mouse into the rectum in BALB/c nu/nu mice and then the incisions were closed with surgical clips. The size of tumor was measured by a caliper. When the size of transplanted tumor reached to 50˜60 mm^3, the above compounds according to the present invention were administered. In more detail, after the above compounds in test groups were dissolved at concentration of 20 mg/kg in a solvent containing 80% of physiological saline, 10% of DMAC (dimethylacetamide), and 10% Tween 80 (hereinafter referred to as ‘Solvent A’), […] of dissolved compounds were orally administered once a day. Mice in control groups were treated with […] of Solvent A alone once daily.
(§3) Tumor volume and body weight were measured to identify in vivo anti-cancer activity of the compounds according to the present invention by repetitive oral administration. Tumor volume and tumor growth inhibition (TGI) in Table 2 were calculated according to the below Mathematic FIG. 1 and FIG. 2, respectively. Tumor growth inhibition was converted to a percentage in Table 2.

[3] = biological target: T1, HIF-1α (Homo sapiens, UniProt Q16665); experiment: Inhibition of hypoxia-induced HIF-1α accumulation, western blot in HCT116 cells; format: cell-based; conditions: HCT116, hypoxia 1% O2, 0-30 μM, 12 hours, FIG. 1
T1 construct: endogenous in cells; host or cells: HCT116 human colon cancer cells (ATCC #CCL-247)
Method: <Experiment 2> In Vitro Studies for Inhibition of Hypoxia-Induced HIF-1α Accumulation
Inhibition of HIF-1α accumulation by the compounds according to the present invention was determined in HCT116 human colon cancer cells. In particular, western blot analysis was used to identify the compounds, I-3, I-6, I-8, I-16, I-19, I-22˜I-24, and I-27˜I-36, which inhibited HIF-1α accumulation under hypoxia.
(§4) First, HCT116 human colon cancer cells (ATCC #CCL-247) were plated at the concentration of 2×10^5 cells/ml. After 24 hours, the cells were incubated under hypoxia (1% O2, 94% N2, and 5% CO2, expressed as 1% O2 in FIG. 1) for 4 hours in order to induce HIF-la accumulation. Cells were treated with the compounds at various concentrations (0, 3, 10, 20, and 30 μM) for 12 hours under hypoxia. The cells were then harvested, and lysed in RIPA buffer to obtain nuclear extracts. Cells grown at 20% O2 (normoxia) were used as control groups to compare HIF-1α-mediated gene expression under each condition. 30 μg of the nuclear extracts per sample was separated by SDS-PAGE (sodium dodecyl sulfate-polyacrylamide gel electrophoresis), and was then transferred to PVDF (polyvinylidene fluoride membrane) membranes. After membranes were probed with HIF-1α antibodies (R&D System), HIF-1α proteins were detected with HRP-conjugated secondary antibodies (Amersham-Pharmacia). GAPDH (Glyceraldehyde 3-phosphate dehydrogenase) was used as an internal control for loading in western blot analysis.

[4] = Body weight change and side effects during 14 days of oral treatment in nude mice; format: in vivo, BALB/c nu/nu mice
Method: as §1, §2, §3
Moreover, severe side effects and statistically significant changes of body weight in all mice treated compounds were not shown for 14 days, comparing to control groups treated with vehicle. (Table 3)

[5] = test system: GAPDH; experiment: GAPDH expression level (internal control) in western blot, HCT116 cells; format: cell-based, human; conditions: HCT116, hypoxia 1% O2, 0-30 μM, 12 hours, FIG. 1
Method: as §4

[6] = HCT-116, 72 h, day 3, 20 mg/kg oral once a day, read-out: TGI (tumor growth inhibition), tumor volume
[7] = HCT-116, 120 h, day 5, 20 mg/kg oral once a day, read-out: TGI (tumor growth inhibition), tumor volume
[8] = HCT-116, 168 h, day 7, 20 mg/kg oral once a day, read-out: TGI (tumor growth inhibition), tumor volume
[9] = HCT-116, 240 h, day 10, 20 mg/kg oral once a day, read-out: TGI (tumor growth inhibition), tumor volume
[10] = HCT-116, 288 h, day 12, 20 mg/kg oral once a day, read-out: TGI (tumor growth inhibition), tumor volume
[11] = HCT-116, 336 h, day 14, 20 mg/kg oral once a day, read-out: TGI (tumor growth inhibition), tumor volume
[12] = HCT-116, 336 h, day 14, 20 mg/kg oral once a day, read-out: TGI (tumor growth inhibition), tumor weight
[13] = day 3, 20 mg/kg oral once a day
[14] = day 5, 20 mg/kg oral once a day
[15] = day 7, 20 mg/kg oral once a day
[16] = day 10, 20 mg/kg oral once a day
[17] = day 12, 20 mg/kg oral once a day
[18] = day 14, 20 mg/kg oral once a day
[19] = day 0, 20 mg/kg oral once a day

T1 sequence (Q16665 whole entry): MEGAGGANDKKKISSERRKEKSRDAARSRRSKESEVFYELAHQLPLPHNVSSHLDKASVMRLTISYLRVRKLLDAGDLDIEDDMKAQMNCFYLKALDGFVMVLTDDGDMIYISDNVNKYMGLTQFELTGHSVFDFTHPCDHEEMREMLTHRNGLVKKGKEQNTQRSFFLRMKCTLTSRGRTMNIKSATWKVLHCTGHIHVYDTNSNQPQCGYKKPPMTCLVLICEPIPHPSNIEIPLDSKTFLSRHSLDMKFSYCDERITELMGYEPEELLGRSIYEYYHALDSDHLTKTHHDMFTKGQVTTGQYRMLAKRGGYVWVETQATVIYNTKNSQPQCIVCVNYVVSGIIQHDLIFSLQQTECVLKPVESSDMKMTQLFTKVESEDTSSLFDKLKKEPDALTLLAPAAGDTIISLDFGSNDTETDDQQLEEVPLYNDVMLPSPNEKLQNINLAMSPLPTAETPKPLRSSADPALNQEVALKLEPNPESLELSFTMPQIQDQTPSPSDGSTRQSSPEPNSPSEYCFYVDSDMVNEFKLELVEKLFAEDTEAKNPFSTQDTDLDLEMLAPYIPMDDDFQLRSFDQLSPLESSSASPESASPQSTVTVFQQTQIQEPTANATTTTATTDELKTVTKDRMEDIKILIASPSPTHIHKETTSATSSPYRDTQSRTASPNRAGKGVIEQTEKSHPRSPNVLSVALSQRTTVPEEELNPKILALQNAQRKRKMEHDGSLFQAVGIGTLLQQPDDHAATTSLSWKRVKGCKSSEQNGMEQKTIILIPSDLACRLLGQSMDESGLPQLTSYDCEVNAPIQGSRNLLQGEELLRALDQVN

| Structure (SMILES) | inhibition at 10 µM [1] | inhibition in vivo at 20 mg/kg [2, 6] | inhibition in vivo at 20 mg/kg [2, 7] | inhibition in vivo at 20 mg/kg [2, 8] | inhibition in vivo at 20 mg/kg [2, 9] | inhibition in vivo at 20 mg/kg [2, 10] | inhibition in vivo at 20 mg/kg [2, 11] | inhibition in vivo at 20 mg/kg [2, 12] | Tumor volume [2, 13] | Tumor volume [2, 14] | Tumor volume [2, 15] | Tumor volume [2, 16] | Tumor volume [2, 17] | Tumor volume [2, 18] | Tumor weight [2, 18] | Body weight change [4, 19] | Body weight change [4, 13] | Body weight change [4, 14] | Body weight change [4, 15] | Body weight change [4, 16] | other results |
| --- | --- | --- | --- | --- | --- | --- | --- | --- | --- | --- | --- | --- | --- | --- | --- | --- | --- | --- | --- | --- | --- |
| Cc1cc(C23CC4CC(CC(C4)C2)C3)ccc1OCC(=O)N1CC[N+](C)(C)CC1.[I-] [Compound I-16, 4-(2-(4-(Adamantan-1-yl)-2-methylphenoxy)acetyl)-1,1-dimethylpiperazin-1-ium iodide] | 51 to 75% | 28.6% | 27.8% | 27.9% | 28.8% | 28.6% | 29.2% | 30.2% | 24.2 ± 6.1 mm^3 | 66.7 ± 14.2 mm^3 | 125.8 ± 13.6 mm^3 | 185.7 ± 20.2 mm^3 | 320.4 ± 33.9 mm^3 | 471.8 ± 26.0 mm^3 | 1655.7 ± 288.4 mg | 100.0 ± 0.0% | 104.1 ± 1.6% | 104.2 ± 2.8% | 104.3 ± 1.9% | 105.8 ± 4.2% | HIF-1α degradation [3]: promoted HIF-1α degradation; inhibitory effects on HIF-1α accumulation [3]: significant inhibitory effects on HIF-1α accumulation; Body weight change [4, 17]: 103.2 ± 3.6%; Body weight change [4, 18]: 102.3 ± 3.7%; GAPDH expression levels [5]: did not affect GAPDH expression levels |
| CN1CCN(C(=O)C(C)(C)Oc2ccc(C34CC5CC(CC(C5)C3)C4)cc2)CC1 [Compound I-23, 2-(4-(Adamantan-1-yl)phenoxy)-2-methyl-1-(4-methylpiperazin-1-yl)propan-1-one] | 76 to 100% | 13.5% | 14.8% | 12.7% | 13.1% | 13.1% | 14.6% | 14.5% | 40.9 ± 8.2 mm^3 | 98.0 ± 13.9 mm^3 | 182.4 ± 19.9 mm^3 | 352.7 ± 53.6 mm^3 | 577.3 ± 74.1 mm^3 | 987.6 ± 143.7 mm^3 | 3659.9 ± 434.8 mg | 100.0 ± 0.0% | 100.8 ± 1.1% | 101.0 ± 1.6% | 100.9 ± 0.7% | 101.9 ± 1.1% | Body weight change [4, 17]: 101.6 ± 1.3%; Body weight change [4, 18]: 102.0 ± 2.0% |
| CN(C)CCNC(=O)C(C)(C)Oc1ccc(C23CC4CC(CC(C4)C2)C3)cc1 [Compound I-24, 2-(4-(Adamantan-1-yl)phenoxy)-N-(2-(dimethylamino)ethyl)-2-methylpropanamide] | 76 to 100% | 19.5% | 18.4% | 15.4% | 15.8% | 14.3% | 14.4% | 13.9% | 38.1 ± 6.4 mm^3 | 93.8 ± 21.0 mm^3 | 176.8 ± 27.6 mm^3 | 341.7 ± 58.8 mm^3 | 569.1 ± 72.4 mm^3 | 990.1 ± 140.3 mm^3 | 3685.5 ± 357.5 mg | 100.0 ± 0.0% | 103.5 ± 3.0% | 104.0 ± 3.6% | 103.6 ± 3.6% | 105.0 ± 4.0% | Body weight change [4, 17]: 104.9 ± 4.1%; Body weight change [4, 18]: 106.5 ± 4.5% |
| CN1CCN(C(=O)CCOc2ccc(C34CC5CC(CC(C5)C3)C4)cc2)CC1 [Compound I-8, 3-(4-(Adamantan-1-yl)phenoxy)-1-(4-methylpiperazin-1-yl)propan-1-one] | 51 to 75% | 27.6% | 29% | 30% | 29.3% | 28.7% | 29.3% | 31% | 24.6 ± 5.1 mm^3 | 65.5 ± 9.0 mm^3 | 122.2 ± 7.9 mm^3 | 184.3 ± 10.0 mm^3 | 319.7 ± 22.0 mm^3 | 471.1 ± 29.0 mm^3 | 1634.6 ± 357.2 mg | 100.0 ± 0.0% | 102.2 ± 2.8% | 103.4 ± 2.8% | 102.6 ± 2.2% | 102.9 ± 1.5% | HIF-1α degradation [3]: promoted HIF-1α degradation; inhibitory effects on HIF-1α accumulation [3]: significant inhibitory effects on HIF-1α accumulation; Body weight change [4, 17]: 101.9 ± 1.0%; Body weight change [4, 18]: 101.7 ± 2.6%; GAPDH expression levels [5]: did not affect GAPDH expression levels |
